These results are taken from patent US9447086B2, “6-amino acid heteroaryldihydropyrimidines for the treatment and prophylaxis of hepatitis B virus infection” (priority 2012, dated 2016).

≈ marks a conversion by molar mass, not a printed value.

As usually defined, the EC50 is the concentration needed to bring the measured effect to its halfway point. One may read the CC50 as the concentration that lowers cell viability or growth by half. The solubility (thermodynamic) is the concentration in solution at equilibrium with solid.

Series [1] relates to HBV. Put plainly: Anti-HBV activity in vitro in HepG2.2.15 cells (extracellular HBV DNA by qPCR). It counts as cell-based, Hepatitis B virus. Conditions: Hepatitis B virus; HepG2.2.15 cells; in-house data; read-out: EC50. An outline of the steps: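 Supernatant HBV DNA was measured by qPCR after viral DNA extraction. Samples came from 5-day cultures of HepG2.2.15 cells, an HBV-genome-transfected HepG2 line, exposed to half-log compound dilutions in medium containing 0.5% DMSO.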
On the technique in general: In qPCR the cycle at which signal appears reflects the starting amount.

In series [2] the test system is HepDE19 cells. Briefly: Cytotoxicity (CC50) in HepDE19 cells, CCK-8 cell viability. The class given is cell-based. An outline of the steps:
(§1)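 HBV-transfected HepG2-derived HepDE19 cells grown in DMEM-F12 with 10% FBS and G418. Viability read five days after treatment by CCK-8, 2 h at 37 °C, absorbance at 450 and 630 nm.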

The subject of series [3] is HBV. Put plainly: Selectivity index (CC50 value/EC50 value). The class given is cell-based, Hepatitis B virus. An outline of the steps: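 Ratio of CC50 to EC50, measuring antiviral activity against HBV relative to cytotoxicity in vitro; higher values indicate greater separation between viral inhibition and cell death.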
Series [4] in a line: Metabolic stability study in human microsome. The class given is in vitro ADME. An outline of the steps:
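Depletion of 1 μM compound followed by LC-MS/MS over 0–30 min (0, 3, 6, 9, 15, 30 min) after methanol quench. Incubations at 37 °C, pH 7.4 phosphate buffer, 0.5 mg/mL microsomal protein, with NADPH (1 mM) or a regenerating system as cofactor; controls lacked cofactor.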

A short description of series [5]: Lyophilisation solubility assay (Lysa). The class given is physicochemical. Conditions: phosphate buffer, pH 6.5, aqueous buffer, thermodynamic from solid. An outline of the steps:
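Solubility in μg/mL is read by UV or HPLC-UV on filtrate, neat and diluted 1/10. Before filtration, the residue from evaporated 10 mM DMSO stock was taken up in pH 6.5 0.05 M phosphate buffer, then stirred 1 h, shaken 2 h and stood overnight, in duplicate.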

Series [6] is described as follows: Cytotoxicity (CC50) in HepDE19 cells, CCK-8 cell viability. It counts as cell-based. The note with it: human, HepDE19 cells; read-out: CC50. An outline of the steps: as §1

Consider `CCOC(=O)C1=C(CN2CCOC[C@H]2C(=O)O)NC(c2nccs2)=N[C@H]1c1cccc(F)c1Br` [Example 66, (S)-4-[(R)-6-(2-Bromo-3-fluoro-phenyl)-5-ethoxycarbonyl-2-thiazol-2-yl-3,6-dihydro-pyrimidin-4-ylmethyl]-morpholine-3-carboxylic acid], for which the EC50 in series [1] worked out at 0.7 nM. Half-maximal cytotoxicity in series [2] (CC50) was put at 95000 nM. Further, the “Selectivity index (CC50/EC50)” value in series [3] is on record as 135714. In series [4], the “Human Hepatic Clearance” value amounted to 1.64 mL/min/kg. The compound also came in with a solubility (thermodynamic) in series [5] of over 669 µg/mL.

As for `COC(=O)C1=C(CN2CCOC[C@H]2C(=O)O)NC(c2nc(C(F)(F)F)cs2)=N[C@H]1c1ccc(F)cc1Cl` [Example 95, (S)-4-[(R)-6-(2-Chloro-4-fluoro-phenyl)-5-methoxycarbonyl-2-(4-trifluoromethyl-thiazol-2-yl)-3,6-dihydro-pyrimidin-4-ylmethyl]-morpholine-3-carboxylic acid], the EC50 in series [1] came out at 2.5 nM. The same compound showed a CC50 in series [2] of over 100000 nM. In addition, in series [3], the “Selectivity index (CC50/EC50)” value was 40000. The “Human Hepatic Clearance” value in series [4] amounted to 3.04 mL/min/kg. Moreover, in series [5], the solubility (thermodynamic) was over 705 µg/mL.

With `COC(=O)C1=C(CN2CCOC[C@@]2(C)C(=O)O)NC(c2nccs2)=N[C@H]1c1ccc(F)cc1Cl` [Example 121, (S)-4-(((R)-6-(2-Chloro-4-fluorophenyl)-5-(methoxycarbonyl)-2-(thiazol-2-yl)-3,6-dihydropyrimidin-4-yl)methyl)-3-methylmorpholine-3-carboxylic acid], the EC50 in series [1] was 20 nM. The compound further had a CC50 in series [2] of over 100000 nM. The “Selectivity index (CC50/EC50)” value in series [3] is given as over 5000. For the same compound, in series [4], the “Human Hepatic Clearance” value was 1.42 mL/min/kg. Besides, the solubility (thermodynamic) in series [5] came to 600 µg/mL (≈ 1180 µM).

Turning to `COC(=O)C1=C(CN2CCO[C@H](C(C)C)[C@H]2C(=O)O)NC(c2nccs2)=N[C@H]1c1ccc(F)cc1Cl` [Example 120, (2R,3S)-4-[(R)-6-(2-Chloro-4-fluoro-phenyl)-5-methoxycarbonyl-2-thiazol-2-yl-3,6-dihydro-pyrimidin-4-ylmethyl]-2-isopropyl-morpholine-3-carboxylic acid], the EC50 in series [1] was found to be 4.8 nM. In series [2], this compound came in with a CC50 of 81000 nM. The “Selectivity index (CC50/EC50)” value in series [3] is 16875. Also, in series [4], the “Human Hepatic Clearance” value came out at 2.58 mL/min/kg.

As to `CCOC(=O)C1=C(CN2CCOC[C@H]2C(=O)O)NC(c2nccs2)=N[C@H]1c1ccc(F)c(F)c1Cl` [Example 60, (S)-4-[(R)-6-(2-Chloro-3,4-difluoro-phenyl)-5-ethoxycarbonyl-2-thiazol-2-yl-3,6-dihydro-pyrimidin-4-ylmethyl]-morpholine-3-carboxylic acid], the EC50 in series [1] was 0.6 nM. The compound further gave a CC50 in series [2] of 29000 nM. The “Selectivity index (CC50/EC50)” value in series [3] is 47783. Further, the “Human Hepatic Clearance” value in series [4] turned out to be 4.8 mL/min/kg. Besides, the solubility (thermodynamic) in series [5] is over 703 µg/mL.

On to `CCOC(=O)C1=C(CN2CCOC[C@H]2C(=O)O)NC(c2nccs2)=N[C@H]1c1ccc(F)cc1` [Example 54, (S)-4-[(S)-5-Ethoxycarbonyl-6-(4-fluoro-phenyl)-2-thiazol-2-yl-3,6-dihydro-pyrimidin-4-ylmethyl]-morpholine-3-carboxylic acid], for which the EC50 in series [1] was determined as 14 nM. In addition, in series [2], the CC50 came to 62000 nM. In addition, the “Selectivity index (CC50/EC50)” value in series [3] is given as 4293. In addition, the “Human Hepatic Clearance” value in series [4] is given as 0 mL/min/kg. Moreover, the thermodynamic solubility in series [5] was over 606 µg/mL.

With `COC(=O)C1=C(CN2CCOC[C@H]2C(=O)O)NC(c2nccs2)=N[C@H]1c1ccc(F)c(F)c1Cl` [Example 73, (S)-4-[(R)-6-(2-Chloro-3,4-difluoro-phenyl)-5-methoxycarbonyl-2-thiazol-2-yl-3,6-dihydro-pyrimidin-4-ylmethyl]-morpholine-3-carboxylic acid], the EC50 in series [1] was 1.2 nM. Moreover, the CC50 in series [2] is over 100000 nM. The “Selectivity index (CC50/EC50)” value in series [3] is listed as over 83333. In addition, the “Human Hepatic Clearance” value in series [4] was 0 mL/min/kg. The compound also returned a thermodynamic solubility in series [5] of over 656 µg/mL.

Regarding `COC(=O)C1=C(CN2CCOC[C@H]2C(=O)O)NC(c2nccs2)=N[C@H]1c1ccc(F)cc1Br` [Example 81, (S)-4-[(R)-6-(2-Bromo-4-fluoro-phenyl)-5-methoxycarbonyl-2-thiazol-2-yl-3,6-dihydro-pyrimidin-4-ylmethyl]-morpholine-3-carboxylic acid], the EC50 in series [1] was determined as 6 nM. Moreover, the CC50 in series [2] was over 100000 nM. For the same compound, in series [3], the “Selectivity index (CC50/EC50)” value is listed as over 16667. Besides, in series [4], the “Human Hepatic Clearance” value was found to be 5.33 mL/min/kg. This compound also displayed a thermodynamic solubility in series [5] of over 691 µg/mL.

With `CCOC(=O)C1=C(CN2CCOC[C@H]2C(=O)O)NC(c2nccs2)=N[C@H]1c1ccccc1Cl` [Example 82, (S)-4-[(R)-6-(2-Chloro-phenyl)-5-ethoxycarbonyl-2-thiazol-2-yl-3,6-dihydro-pyrimidin-4-ylmethyl]-morpholine-3-carboxylic acid], the EC50 in series [1] is 14 nM. Also, the CC50 in series [2] was over 100000 nM. Also, the “Selectivity index (CC50/EC50)” value in series [3] is reported as over 7194. Also, in series [4], the “Human Hepatic Clearance” value came to 0 mL/min/kg. Further, the thermodynamic solubility in series [5] is over 618 µg/mL.

As to `COC(=O)C1=C(CN2CCO[C@H](C)[C@H]2C(=O)O)NC(c2nccs2)=N[C@H]1c1cccc(F)c1Cl` [Example 115, (2R,3S)-4-[(R)-6-(2-Chloro-3-fluoro-phenyl)-5-methoxycarbonyl-2-thiazol-2-yl-3,6-dihydro-pyrimidin-4-ylmethyl]-2-methyl-morpholine-3-carboxylic acid], in series [1], the EC50 was 2.3 nM. In addition, the CC50 at 5 days in series [6] was over 100000 nM. For the same compound, the “Selectivity index (CC50/EC50)” value in series [3] is over 43478. Also, the “Human Hepatic Clearance” value in series [4] is given as 1.55 mL/min/kg. Further, the thermodynamic solubility in series [5] was over 642 µg/mL.

For the compound `CCOC(=O)C1=C(CN2CC(F)(F)C[C@H]2C(=O)O)NC(c2nccs2)=N[C@H]1c1cccc(F)c1F` [Example 50, (R)-6-((S)-2-Carboxy-4,4-difluoro-pyrrolidin-1-ylmethyl)-4-(2,3-difluoro-phenyl)-2-thiazol-2-yl-1,4-dihydro-pyrimidine-5-carboxylic acid ethyl ester], the EC50 in series [1] came out at 14 nM. For the same compound, the cytotoxic concentration (CC50) at 5 days in series [6] amounted to 26000 nM. The “Selectivity index (CC50/EC50)” value in series [3] turned out to be 1905. In series [4], the “Human Hepatic Clearance” value came to 0 mL/min/kg. In series [5], this compound came in with a thermodynamic solubility of over 580 µg/mL.

On to `COC(=O)C1=C(CN2CC(F)(F)C[C@H]2C(=O)O)NC(c2cc(F)cs2)=N[C@H]1c1ccc(F)cc1Cl` [Example 12, (R)-6-((S)-2-Carboxy-4,4-difluoro-pyrrolidin-1-ylmethyl)-4-(2-chloro-4-fluoro-phenyl)-2-(4-fluoro-thiophen-2-yl)-1,4-dihydro-pyrimidine-5-carboxylic acid methyl ester], for which the EC50 in series [1] was determined as 9.3 nM. Moreover, in series [6], the CC50 at 5 days is over 100000 nM. The “Selectivity index (CC50/EC50)” value in series [3] is reported as over 10753. Besides, the “Human Hepatic Clearance” value in series [4] turned out to be 5.55 mL/min/kg. In series [5], the thermodynamic solubility came to 488 µg/mL (≈ 917 µM).

Consider `COC(=O)C1=C(CN2CCOC[C@]2(C)C(=O)O)NC(c2nccs2)=N[C@H]1c1ccc(F)c(F)c1Cl` (single isomer, unassigned) [Example 79], for which the EC50 in series [1] came out at 4.5 nM. The CC50 at 5 days in series [6] is 76000 nM. In addition, the “Selectivity index (CC50/EC50)” value in series [3] amounted to 16889. Also, the “Human Hepatic Clearance” value in series [4] worked out at 2.18 mL/min/kg. In series [5], this compound displayed a thermodynamic solubility of over 660 µg/mL.

As to `CC(C)OC(=O)C1=C(CN2CCOC[C@H]2C(=O)O)NC(c2nccs2)=N[C@H]1c1cccc(F)c1Cl` [Example 101, (S)-4-[(R)-6-(2-Chloro-3-fluoro-phenyl)-5-isopropoxycarbonyl-2-thiazol-2-yl-3,6-dihydro-pyrimidin-4-ylmethyl]-morpholine-3-carboxylic acid], the EC50 in series [1] came to 14 nM. For the same compound, the CC50 at 5 days in series [6] is 91000 nM. Further, the “Selectivity index (CC50/EC50)” value in series [3] is on record as 6741. Moreover, in series [4], the “Human Hepatic Clearance” value amounted to 4.18 mL/min/kg. This compound registered a thermodynamic solubility in series [5] of over 571 µg/mL.

Turning to `COC(=O)C1=C(CN2CC(F)(F)CC[C@H]2C(=O)O)NC(c2nccs2)=N[C@H]1c1cccc(F)c1Cl` [Example 109, (R)-6-((S)-2-Carboxy-5,5-difluoro-piperidin-1-ylmethyl)-4-(2-chloro-3-fluoro-phenyl)-2-thiazol-2-yl-1,4-dihydro-pyrimidine-5-carboxylic acid methyl ester], the EC50 in series [1] turned out to be 4.4 nM. For the same compound, the CC50 at 5 days in series [6] stood at 55000 nM. In addition, the “Selectivity index (CC50/EC50)” value in series [3] was found to be 12500. Also, the “Human Hepatic Clearance” value in series [4] came out at 1.25 mL/min/kg. The solubility (thermodynamic) in series [5] is over 657 µg/mL.

For `COC(=O)C1=C(CN2CCOC[C@H]2C(=O)O)NC(c2nccs2)=N[C@H]1c1ccccc1Br` [Example 71, (S)-4-[(R)-6-(2-Bromo-phenyl)-5-methoxycarbonyl-2-thiazol-2-yl-3,6-dihydro-pyrimidin-4-ylmethyl]-morpholine-3-carboxylic acid], the EC50 in series [1] is 4.8 nM. Also, the CC50 at 5 days in series [6] is over 100000 nM. The “Selectivity index (CC50/EC50)” value in series [3] is over 20833. Moreover, the “Human Hepatic Clearance” value in series [4] amounted to 2.81 mL/min/kg. This compound yielded a solubility (thermodynamic) in series [5] of over 642 µg/mL.
